Source: publication PMC10060354, “Discovery of a small molecule ligand of FRS2 that inhibits invasion and tumor growth” (Cellular Oncology, 2022)
Several values for one entry are separate records, joined by “and”; a condition that tells them apart may be missing. Identical values can stand only once. Like-named read-outs stand apart in the source and are kept apart here.

Columns and labels:
ERK (pT202/Y204) = assay: Immunoblotting, ERK phosphorylation; assay type: cell-based, human
Method: (§1) Cells were serum starved o.n. and 10 µM compound or 1 µM (BGJ398) were added 3 h before stimulation with 100 ng/ml bFGF for 15 min. Cells were lysed in RIPA buffer containing protease inhibitor cocktail and lysates resolved by SDS-PAGE. Membranes were probed with primary antibodies against phospho-FRS2, FRS2, phospho-ERK1/2, ERK1/2, pAKT, AKT and tubulin. Integrated density of immuno-reactive bands was quantified using Adobe Photoshop CS3. Integrated densities of phospho bands relative to non-phospho bands of same protein were calculated and plotted as fold-change relative to untreated control conditions. Compounds and BGJ398 were added in DMSO and corresponding DMSO concentrations were used in control samples.

[1] = system: bFGF-sensitive (M059K, RT-112, SW780) and bFGF-insensitive (SKOV3, AGS and HCT116) cell lines; assay: SIA, collagen I invasion in panel of human cancer cell models; assay type: cell-based; conditions: 10 µM
Method: 1000—2500 cells/well in 100 μl were seeded in 96 well Corning® Spheroid microplate (CLS4520, Sigma-Aldrich) or in cell-repellent 96 well microplate (650,790, Greiner Bio-one). SIA and analysis was performed as described before. In brief: After spheroid formation (24 – 72 h after seeding), 70 µl medium was removed and replaced with the collagen mixture (2.5 mg/ml Pure Col Collagen I (Advanced Biomatrix)), DMEM 1x (from 10 × stock, Sigma, D2429) and 0.4% Sodium bicarbonate (Sigma, S8761)), resulting in a final collagen concentration of 1.75 mg/ml. Embedded spheroids were stimulated with bFGF (100 ng/ml if not otherwise stated), HGF (30 ng /ml) or EGF (20 ng/ml) and distance of invaded cells quantified 24 – 48 h after embedding. Compounds and BGJ398 were added in Dimethylsulfoxid (DMSO) and corresponding DMSO concentrations were used in control samples.

[2] = system: FRS2 (Y436) phosphorylation; assay: Immunoblotting, FRS2 phosphorylation; assay type: cell-based, human
Method: as §1

GB1-FRS2-PTB = target: T1, GB1-FRS2-PTB (Homo sapiens, UniProt Q8WU20); assay: Microscale thermophoresis (MST); assay type: binding; conditions: for Kd: GB1-FRS2_PTB
T1 construct: FRS2-PTB 11-140aa; 6xHis (N); made in house; host or cells: E. coli BL21 (DE3)
T1 sequence (Q8WU20 11-140): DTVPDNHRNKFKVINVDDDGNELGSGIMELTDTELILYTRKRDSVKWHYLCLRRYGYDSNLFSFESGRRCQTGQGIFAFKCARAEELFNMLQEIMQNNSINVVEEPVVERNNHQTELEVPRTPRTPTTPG
Method: Protein labeling for MST was performed with the 2nd Generation BLUE-NHS dye. GB1-FRS2_PTB- was labelled at 20 μM with 60 μM dye and incubated for 30 min in the dark at room temperature. The labelling was performed in the protein buffer without arginine supplementation. It was rebuffered to protein buffer (100 mM sodium phosphate, 50 mM NaCl, 0.5 mM EDTA, 50 mM arginine, 1 mM TCEP, pH 7.0). The dye was subsequently removed by gravitational flow chromatography and the protein concentration determined by UV-spectroscopy. The assay was established with the FGFR_PEP. […] A total volume of 10 μl of 50 nM labelled protein was added to 10 μl of the peptide dilution series for a final labelled protein concentration of 25 nM. The samples were incubated for 15 min at RT. […] Temperature was set to 25 °C. Each measurement was repeated twice. The interaction was measured in duplicates for the non-DMSO-supplemented buffer and in triplicates for DMSO-supplemented buffer. […] The samples were incubated for 15 min, and MST assessed as described above. Each measurement was repeated twice. The interaction was measured in two independent duplicates. […] The mixture was then measured for their initial fluorescence once. MST-experiments were performed with MO.Control vers. 1.6 (NanoTemper Technologies, Munich, Germany) and data analyzed with MO.Analysis vers. 2.3 (NanoTemper Technologies, Munich, Germany). Data was plotted with GraphPad Prism vers. 8.3.0 (GraphPad Software, San Diego, USA).

[3] = In vivo bioavailability / PK after 1 mg/kg IV or 10 mg/kg PO; design: species or system Male ICR mice; conditions: for AUC(0-t): iv
Method: In vivo bioavailability studies were performed by Pharmacology Discovery Services Taiwan, Ltd., (New Taipei City, Taiwan). Male ICR mice weighing 20—30 g were provided by BioLasco Taiwan (under Charles River Laboratories Licensee). Animals were acclimated for 3 days prior to use and were confirmed with good health. All animals were maintained in a hygienic environment with controlled temperature (20—24 °C), humidity (30%—70%) and 12 h light/dark cycles. Free access to sterilized standard lab diet [MFG (Oriental Yeast Co., Ltd., Japan)] and autoclaved tap water. A pharmacokinetic (PK) study was performed in male ICR mice following intravenous (IV) and oral (PO) administration of compound 7 and E12 and IV administration of the test compound 3.14. The three test compounds (7, E12 and 3.14) were formulated in 1% dimethyl sulfoxide (DMSO)/10% Solutol® HS-15/ phosphate buffered saline (PBS) at 0.2 mg/mL and 1 mg/mL for IV and PO administration, respectively. The dosing volumes were 5 ml/kg for IV and 10 ml/kg for PO. The dose was 1 mg/kg for IV and 10 mg/kg for PO routes.

[4] = male, ICR, mouse, plasma, 1 mg/kg, IV

SMILES | basal and bFGF-induced phosphorylation of ERK (result in words) (ERK (pT202/Y204); DAOY, SW780, M059K, SKOV3, AGS, DMS114 and RT-112 cells, 10 µM compound or 1 µM BGJ398) | collagen I invasion across cancer cell lines (result in words) [1] | basal and bFGF-induced phosphorylation of FRS2Y436 (result in words) ([2]; RT-112 cells) | Kd (GB1-FRS2-PTB; fitting with signal-noise ratio < 5 is considered no binding, read-out: KD, MST trace analysis) | Kd (GB1-FRS2-PTB; read-out: KD, initial fluorescence change analysis) | binding by MST trace analysis (result in words) (GB1-FRS2-PTB; signal:noise ratio > 5 counts as binding) | AUC Extr (%) ([3]; 1 mg/kg, IV) | AUC(0-t) ([3]; male, ICR, mouse, plasma, 1 mg/kg, IV, read-out: AUClast) [ng·h/mL] | AUC(0-t) ([3]; male, ICR, mouse, plasma, 1 mg/kg, mice, 1 mg/kg IV, read-out: AUClast after IV administration) [ng·h/mL] | AUC(0-inf) [3, 4] [ng·h/mL] | MRT [3, 4] [h] | clearance [3, 4] [mL/min/kg] | half-life [3, 4] [h] | Vd ([3]; male, ICR, mouse, plasma, 1 mg/kg, IV, read-out: Vss) [L/kg] | C0 ([3]; male, ICR, mouse, mice, 1 mg/kg IV, plasma, read-out: C0 after IV administration) [ng/mL] | CL1/2 after IV administration ([3]; mice, 1 mg/kg IV) [h] | pERK (result in words) (ERK (pT202/Y204); SW780 and AGS cells, 10 µM) | basal or bFGF-induced Y436 phosphorylation of FRS2 (result in words) ([2]; DAOY or SW780 cells, 10 µM compound)
N#Cc1c(Cl)cc(O)c2c1C1C=CCC1C(c1ccc(Cl)cc1)N2 (stereo not drawn) [Compound 14] | inhibited basal and bFGF-induced phosphorylation | inhibited collagen I invasion in both bFGF-sensitive and bFGF-insensitive cell lines | reduced basal and bFGF-induced phosphorylation | – | – | – | – | – | – | – | – | – | – | – | – | – | – | –
CC(C)C[C@@H](CO)NCc1cc(O)c2cc(F)ccc2n1 [Compound 3.14] | – | – | – | 150 µM and 400 µM | 19.6 µM and 12.8 µM and 12.8 to 19.6 µM | did show binding | 0.5 | 410 | 413 | 413 | 0.52 | 40 | 1.55 | 1.3 | 2700 | 1.55 | significantly reduced pERK | not effective in SW780 cells
